Drawing on ChEMBL document CHEMBL5727406, “Positive allosteric modulators of the GLP-1 receptor” (2019), this text covers EC50 for 1 compound.

The structures appear in SMILES notation.

The target of the assay is Glucagon-like peptide 1 receptor (Homo sapiens, UniProt P43220). Description: GLP-1 Assay with EX-4 Synthetic Agonist: To assess the effects of test compounds on GLP-1 or glucagon potency and efficacy, a high-throughput calcium mobilization assay was used essentially as previously described (Morris L C, Days E L, Turney M, Mi D, Lindsley C W, Weaver C D, Niswender K D, A Duplexed High-Throughput Screen to Identify Allosteric Modulators of the Glucagon-Like Peptide 1 and Glucagon Receptors. J. Biomol. Screen. 2014 Feb. 13, 19(6):847-858). Briefly, human GLP-1R or Glucagon Receptor 9-3-H cells over-expressing a promiscuous G-protein (Millipore, Billerica, Mass.) were plated at 15,000 cells/well in black-walled 384-well plates (Greiner Bio-one, Monroe, N.C.) in Dulbecco's Modified Eagles Medium (DMEM) with 10% FCS, 4.0 mM L-glutamine, 1× non-essential amino acids (NEAAs), and 10.0 mM HEPES without antibiotics. After overnight attachment, cells were washed twice with assay buffer (HBSS supplemented with 20 mM HEPES and 1.0 mM probenecid) using an EL×405CW cell washer (Bio-Tek, Winooski, Vt.) and then loaded with the calcium sensitive dye fluo-4 AM (Invitrogen, Grand Island, N.Y.) at a final concentration of 2.0 μM in assay buffer. After a 45-minute incubation at room temperature, the dye was removed by washing, leaving 20 μL of assay buffer. […]. For orientation: Calcium assays in cells follow changes in intracellular calcium, usually with a dye or a luminescent sensor.
Glucagon-like peptide 1 receptor, sequence (P43220 whole entry): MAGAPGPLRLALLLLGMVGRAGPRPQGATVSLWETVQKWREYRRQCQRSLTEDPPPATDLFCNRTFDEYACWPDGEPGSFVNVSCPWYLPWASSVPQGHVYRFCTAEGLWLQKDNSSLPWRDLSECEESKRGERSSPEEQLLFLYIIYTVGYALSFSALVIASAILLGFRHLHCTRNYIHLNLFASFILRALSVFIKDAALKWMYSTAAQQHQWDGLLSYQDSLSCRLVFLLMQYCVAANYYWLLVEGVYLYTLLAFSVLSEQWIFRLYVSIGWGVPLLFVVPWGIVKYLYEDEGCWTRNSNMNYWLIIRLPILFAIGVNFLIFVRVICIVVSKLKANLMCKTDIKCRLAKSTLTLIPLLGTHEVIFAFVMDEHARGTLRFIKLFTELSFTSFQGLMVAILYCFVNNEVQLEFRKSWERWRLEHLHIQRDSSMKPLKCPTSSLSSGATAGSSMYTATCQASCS

For `Cc1c2ccccc2n2c(C(=O)NC[C@H]3CCCN3C(C)C)cn(C3CCCC3)c(=O)c12`, the EC50 is greater than 30 µM.

What is called EC50 is the midpoint of the concentration-response curve.
